Data published in patent US20260062420A1, “NOVEL DPP1 INHIBITORS AND USES THEREOF” (Insmed Incorporated, priority 2022, published 2026).

How the values were obtained:
active mouse DPP1 enzyme = active mouse DPP1 enzyme (Mus musculus (Mouse), UniProt P97821); assay: Mouse DPP1 Enzyme IC50 Assay; type: biochemical; conditions: mouse DPP1 enzyme; Table 16; read-out: IC50, nM; Mouse
Method: Test articles were applied to active mouse DPP1 enzyme (R&D Systems; Minneapolis, MN) in Assay Buffer (50 mM MES pH 5.5, 50 mM NaCl, 5 mM DTT) in a total reaction volume of 125 μL. 25 μL of compound in Assay Buffer plus 5% DMSO was first added to 50 μL of active mouse DPP1 enzyme at a concentration of 62.5 pg/μL and allowed to pre-incubate for 10 minutes at 37° C. after which 50 μL of 1000 μM H-Gly-Arg-AMC substrate (Bachem; St. Torrance, CA) was added, giving final substrate concentration of 400 μM and a final DMSO concentration of 1%. Substrate cleavage was measured for 90 minutes at 37° C., with fluorescence at Excitation/Emission 350/450 nm measured every 5 minutes. DPP1 concentration was interpolated based on its activity relative to a standard curve of recombinant active mouse DPP1 enzyme. IC50 values for each compound were calculated via the XLFit (IDBS Version 5.3.1.3) Add-On to Microsoft Excel using the four parameter fit equation y=(A+((B−A)/(1+((C/x)^D)))), which appears as equation number 205 (4 Parameter Logistic Model or Sigmoidal Dose-Response Model) in XLFit. Default constraints were used for each Parameter. IC50 was defined as the compound concentration at which 50% of enzyme activity was inhibited when compared to the no-compound control.

[1] = target: Recombinant human DPP1 enzyme (Homo sapiens (Human), UniProt P53634); assay: Human DPP1 Enzyme IC50 Assay; type: biochemical; conditions: human DPP1 enzyme; Table 16; read-out: IC50, nM; Human
Recombinant human DPP1 enzyme, sequence (P53634 25-134): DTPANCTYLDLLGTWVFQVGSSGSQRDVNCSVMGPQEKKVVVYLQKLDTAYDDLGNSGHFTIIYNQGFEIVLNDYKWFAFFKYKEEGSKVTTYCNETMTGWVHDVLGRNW
Recombinant human DPP1 enzyme, sequence (P53634 231-394): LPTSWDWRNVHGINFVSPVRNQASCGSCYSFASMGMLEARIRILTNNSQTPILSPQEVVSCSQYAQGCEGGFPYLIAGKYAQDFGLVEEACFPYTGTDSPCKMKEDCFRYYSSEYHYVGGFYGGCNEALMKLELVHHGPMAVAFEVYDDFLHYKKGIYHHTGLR
Recombinant human DPP1 enzyme, sequence (P53634 395-463): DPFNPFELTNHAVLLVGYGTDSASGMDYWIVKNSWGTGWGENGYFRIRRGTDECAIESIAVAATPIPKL
Method: Recombinant human DPP1 enzyme (R&D Systems; Minneapolis, MN) was first proteolytically processed into its mature form using recombinant human cathepsin L (R&D Systems) in a buffer consisting of 20 mM citric acid pH 4.5, 150 mM NaCl, 1 mM EDTA and 10 mM DTT. Test articles were applied to activated human DPP1 enzyme in Assay Buffer (25 mM MES pH 6.0, 50 mM NaCl, 5 mM DTT) in a total reaction volume of 125 μL. 25 μL of compound in Assay Buffer plus 5% DMSO was first added to 50 μL of activated human DPP1 enzyme at a concentration of 1 ng/μL and allowed to pre-incubate for 10 minutes at 37° C. after which 50 μL of 1000 μM H-Gly-Arg-AMC substrate (Bachem; St. Torrance, CA) was added, giving final substrate concentration of 400 μM and a final DMSO concentration of 1%. Substrate cleavage was measured for 90 minutes at 37° C., with fluorescence at Excitation/Emission 350/450 nm measured every 5 minutes. DPP1 concentration was interpolated based on its activity relative to a standard curve of activated human recombinant DPP1 enzyme. IC50 values for each compound were calculated via the XLFit (IDBS Version 5.3.1.3) Add-On to Microsoft Excel using the four parameter fit equation y={A+[(B−A)]/[1+((C/x)^D)]}, which appears as equation number 205 (4 Parameter Logistic Model or Sigmoidal Dose-Response Model) in XLFit. Default constraints were used for each Parameter.

DPP1 in HL-60 cells = DPP1 in HL-60 cells (Homo sapiens (Human), UniProt P53634); assay: DPP1 Cell IC50 Assay (HL-60 cells, H-Gly-Phe-AFC substrate); type: cell-based; conditions: Table 16, read-out: Cell Assay
DPP1 in HL-60 cells, sequence (P53634 25-134): as the sequence (P53634 25-134) above
DPP1 in HL-60 cells, sequence (P53634 231-394): as the sequence (P53634 231-394) above
DPP1 in HL-60 cells, sequence (P53634 395-463): as the sequence (P53634 395-463) above
Method: HL-60 cells (ATCC; Manassas, VA) were maintained in RPMI-1640 supplemented with 20% heat-inactivated FBS and 1× Antibiotic Antimycotic (Cytiva; Marlborough, MA). Media was changed every three to four days and cells were not allowed to exceed 1×10^6 cells per mL. Prior to assay, cells were collected by centrifugation at 500 rcf for 3 minutes, resuspended in PBS and counted. Cells were diluted in PBS to a concentration of 5×10^5 live cells per mL and transferred to black 96-well plates for assay, 60 μL per well. Test articles were diluted in PBS plus 0.5% DMSO, and 20 μL was added to each assay well. Compound was allowed to pre-incubate with cells with gentle shaking at 100 rpm for 60 minutes at 37° C. in a cell culture incubator maintained at 5% CO2, after which 20 μL of 500 μM H-Gly-Phe-AFC substrate (MP Biomedicals; Solon, OH) was added to each well. Plates were returned to the incubator with shaking at 100 rpm for 30 minutes, after which fluorescence was measured at Excitation/Emission 400/505 nm. % Inhibition was calculated from RFU values compared to control cell wells that received only PBS plus 0.5% DMSO. IC50 values for each compound were calculated via the XLFit (IDBS Version 5.3.1.3) Add-On to Microsoft Excel using the four parameter fit equation y=(A+((B−A)/(1+((C/x)^D)))), which appears as equation number 205 (4 Parameter Logistic Model or Sigmoidal Dose-Response Model) in XLFit.

active mouse DPP1 enzyme, sequence (P97821 25-134): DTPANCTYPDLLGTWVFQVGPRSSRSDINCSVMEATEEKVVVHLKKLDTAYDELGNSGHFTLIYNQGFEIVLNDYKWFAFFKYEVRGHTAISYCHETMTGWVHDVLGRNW
active mouse DPP1 enzyme, sequence (P97821 231-393): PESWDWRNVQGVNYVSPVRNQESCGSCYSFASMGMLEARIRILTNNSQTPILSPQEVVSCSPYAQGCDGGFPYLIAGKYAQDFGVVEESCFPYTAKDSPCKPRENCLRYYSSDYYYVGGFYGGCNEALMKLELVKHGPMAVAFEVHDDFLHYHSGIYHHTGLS
active mouse DPP1 enzyme, sequence (P97821 394-462): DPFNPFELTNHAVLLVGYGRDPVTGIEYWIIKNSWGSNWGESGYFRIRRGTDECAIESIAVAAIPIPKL

In the case of `Cn1c(=O)oc2ccc(-c3ccc(C[C@@H](C#N)NC(=O)[C@@H]4C[C@@H]5C[C@@H]5N4)cc3)cc21`, the IC50 (active mouse DPP1 enzyme) is reported as 131 nM, the IC50 [1] is reported as 189 nM and the IC50 (DPP1 in HL-60 cells) is reported as 26 nM.

`Cn1c(=O)oc2ccc(-c3ccc(C[C@@H](C#N)NC(=O)[C@@H]4COCCN4)cc3)cc21` showed an IC50 (active mouse DPP1 enzyme) of 306 nM, an IC50 [1] of 537 nM and an IC50 (DPP1 in HL-60 cells) of 330 nM.

`Cn1c(=O)oc2ccc(-c3ccc(C[C@@H](C#N)NC(=O)C4CC5OCCC5N4)cc3)cc21` (some centres unmarked) gave an IC50 (active mouse DPP1 enzyme) of 438 nM, an IC50 [1] of 784 nM and an IC50 (DPP1 in HL-60 cells) of 878 nM.

Work on `Cn1c(=O)oc2ccc(-c3ccc(C[C@@H](C#N)NC(=O)CC4(N)CCCCC4)cc3)cc21` yielded an IC50 (active mouse DPP1 enzyme) of 815 nM, an IC50 [1] of 1100 nM and an IC50 (DPP1 in HL-60 cells) of 40.1 nM.

For `Cn1c(=O)oc2ccc(-c3ccc(C[C@@H](C#N)NC(=O)[C@H]4C[C@H]5OCC[C@H]5N4)cc3)cc21`, the IC50 (active mouse DPP1 enzyme) was 226 nM, the IC50 [1] was 497 nM and the IC50 (DPP1 in HL-60 cells) was greater than 1000 nM.

`Cn1c(=O)oc2ccc(-c3ccc(C[C@@H](C#N)NC(=O)C4CNC(C)(C)CO4)cc3)cc21` (some centres unmarked) gave an IC50 (active mouse DPP1 enzyme) of 785 nM, an IC50 [1] of 360 nM and an IC50 (DPP1 in HL-60 cells) of 54.7 nM.

Compound `Cn1c(=O)oc2ccc(-c3ccc(CC(C#N)NC(=O)C4CNC4)c(F)c3)cc21` (centres unmarked) has an IC50 (active mouse DPP1 enzyme) of 647 nM, an IC50 [1] of 432 nM and an IC50 (DPP1 in HL-60 cells) of 508 nM.

In the case of `N#Cc1ccc(-c2ccc(C[C@@H](C#N)NC(=O)[C@@H]3C[C@@H]4COC[C@@H]4N3)cc2)cc1`, the IC50 (active mouse DPP1 enzyme) is reported as 246 nM, the IC50 [1] is reported as 480 nM and the IC50 (DPP1 in HL-60 cells) is reported as 875 nM.

For `Cn1c(=O)oc2ccc(-c3ccc(C[C@@H](C#N)NC(=O)[C@@H]4C[C@@H]5COC[C@@H]5N4)c(F)c3)cc21`, the IC50 (active mouse DPP1 enzyme) was 41.2 nM, the IC50 [1] was 179 nM and the IC50 (DPP1 in HL-60 cells) was 150 nM.

Compound `Cn1c(=O)oc2ccc(-c3ccc(C[C@@H](C#N)NC(=O)[C@@H]4CNCCCO4)cc3F)cc21` has an IC50 (active mouse DPP1 enzyme) of 218 nM, an IC50 [1] of 186 nM and an IC50 (DPP1 in HL-60 cells) of 10.1 nM.

`N#Cc1ccc(-c2ccc(C[C@@H](C#N)NC(=O)[C@@H]3C[C@@H]4CCC[C@@H]4N3)c(F)c2)cc1` showed an IC50 (active mouse DPP1 enzyme) of 6.5 nM, an IC50 [1] of 10.1 nM and an IC50 (DPP1 in HL-60 cells) of 3 ± 0.4 nM.

With `Cn1c(=O)oc2ccc(-c3ccc(C[C@@H](C#N)NC(=O)[C@@H]4C[C@@H]5CCC[C@@H]5N4)cc3)cc21` the IC50 (active mouse DPP1 enzyme) was 8.2 nM, the IC50 [1] was 17.3 nM and the IC50 (DPP1 in HL-60 cells) was 3.1 nM.

In the case of `Cn1c(=O)oc2ccc(-c3ccc(C[C@@H](C#N)NC(=O)[C@@H]4C[C@H]5C[C@H]5N4)cc3)cc21` [drawing 1151], the IC50 (active mouse DPP1 enzyme) is reported as 24 nM, the IC50 [1] is reported as 41.1 nM and the IC50 (DPP1 in HL-60 cells) is reported as 3.7 nM.

For `Cn1c(=O)oc2ccc(-c3ccc(C[C@@H](C#N)NC(=O)C4CNCC45CCC5)cc3)cc21` (some centres unmarked) [drawing 1188], the IC50 (active mouse DPP1 enzyme) was 2080 nM, the IC50 [1] was 828 nM and the IC50 (DPP1 in HL-60 cells) was 60.4 nM.

`N#Cc1ccc(-c2ccc(C[C@@H](C#N)NC(=O)[C@@H]3CNCCCO3)c(F)c2)cc1` [drawing 1196] was tested, and the IC50 (active mouse DPP1 enzyme) was 31 nM, the IC50 [1] was 31.4 nM and the IC50 (DPP1 in HL-60 cells) was 3.6 nM.

For `N#Cc1ccc(-c2ccc(C[C@@H](C#N)NC(=O)[C@@H]3CNCCCO3)c(F)c2)cc1` [drawing 1197], the IC50 (active mouse DPP1 enzyme) was 36.7 nM, the IC50 [1] was 49.5 nM and the IC50 (DPP1 in HL-60 cells) was 4.2 nM.

Compound `Cn1c(=O)oc2ccc(-c3ccc(C[C@@H](C#N)NC(=O)[C@@H]4C[C@@H]5COC[C@@H]5N4)cc3)cc21` [drawing 1208] has an IC50 (active mouse DPP1 enzyme) of 136 nM, an IC50 [1] of 311 nM and an IC50 (DPP1 in HL-60 cells) of 462 nM.

For `Cn1c(=O)oc2ccc(-c3ccc(C[C@@H](C#N)NC(=O)[C@@H]4C[C@@H]5CCC[C@@H]5N4)c(F)c3)cc21` [drawing 1220], the IC50 (active mouse DPP1 enzyme) was 3.4 nM, the IC50 [1] was 5.9 nM and the IC50 (DPP1 in HL-60 cells) was 1.7 nM.

Compound `Cn1c(=O)oc2ccc(-c3ccc(C[C@@H](C#N)NC(=O)[C@@H]4C[C@@H]5CCC[C@@H]5N4)c(F)c3)cc21` [drawing 1227] has an IC50 [1] of 7.6 nM and an IC50 (DPP1 in HL-60 cells) of 1.9 nM.
